Test results from patent US5976497A, “Dopamine D4 receptor ligands” (Resolution Pharmaceuticals, Inc., priority 1997, dated 1999).
Each block holds one molecule with its values, some of them ahead of it.

Assays:
[1] = target: T1, D4 (Homo sapiens, UniProt P21917, DEL265-296); assay: D4 receptor-binding affinity (reduction of ^3 H-spiperone binding); conditions: for Ki: ^3 H-spiperone displacement, Ki by Cheng and Prusoff transformation of IC50
T1 construct: expressed in transfected cells; host or cells: HEK 298 cells (so in the source); membrane preparations
T1 sequence (P21917 with tags, fused parts or gaps DEL265-296): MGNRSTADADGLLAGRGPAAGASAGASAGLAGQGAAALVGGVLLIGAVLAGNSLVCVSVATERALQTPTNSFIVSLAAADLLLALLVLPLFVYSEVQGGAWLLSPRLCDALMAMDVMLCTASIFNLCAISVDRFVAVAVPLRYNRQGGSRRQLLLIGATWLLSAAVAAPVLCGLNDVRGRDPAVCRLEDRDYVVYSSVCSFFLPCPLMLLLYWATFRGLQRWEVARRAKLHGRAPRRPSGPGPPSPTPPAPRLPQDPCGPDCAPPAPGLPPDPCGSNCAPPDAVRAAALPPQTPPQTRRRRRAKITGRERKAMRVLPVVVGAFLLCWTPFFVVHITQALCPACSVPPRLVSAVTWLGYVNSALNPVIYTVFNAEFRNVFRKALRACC
Experimental: (§1) The potency of the test compound to reduce ^3 H-spiperone binding is directly correlated to its binding affinity for the receptor.
(§2) The test compounds were assayed at a range of concentrations and the % inhibition of ^3 H-spiperone binding at each test concentration was measured. Specific binding in the absence of test compound is the difference of total binding minus non-specific binding and similarly specific binding (in the presence of test compound) is the difference of displacement binding minus non-specific binding.
(§3) where [L] is the concentration of ^3 H-spiperone used in the assay and KD is the dissociation constant of ^3 H-spiperone determined independently under the same binding conditions.

[2] = target: T2, D2 (Homo sapiens, UniProt P14416); assay: D2 receptor-binding affinity (reduction of ^3 H-spiperone binding); conditions: for Ki: ^3 H-spiperone displacement, Ki by Cheng and Prusoff transformation of IC50
T2 construct: expressed in transfected cells; host or cells: GH4C1 (rat pituitary) cells, stably transfected; membrane preparations
T2 sequence (P14416 1-414 isoform P14416-2): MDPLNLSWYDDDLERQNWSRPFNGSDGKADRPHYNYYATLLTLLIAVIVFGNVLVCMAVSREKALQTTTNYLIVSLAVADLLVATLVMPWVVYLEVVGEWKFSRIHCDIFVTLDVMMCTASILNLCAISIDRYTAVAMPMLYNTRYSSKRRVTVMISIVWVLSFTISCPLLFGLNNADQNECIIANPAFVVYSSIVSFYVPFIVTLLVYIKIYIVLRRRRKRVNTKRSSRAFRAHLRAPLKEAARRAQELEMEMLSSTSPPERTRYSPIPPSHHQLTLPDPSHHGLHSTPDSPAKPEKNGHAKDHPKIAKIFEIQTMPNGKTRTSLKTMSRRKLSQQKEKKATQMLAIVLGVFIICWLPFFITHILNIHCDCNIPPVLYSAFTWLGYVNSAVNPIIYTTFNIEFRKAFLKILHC
Experimental: as §1, §2, §3

[3] = target: D4 receptor; conditions: marketed products, background statement; cited from earlier work
[4] = test system: D4 receptor relative to the D2 receptor; conditions: marketed products, background statement; cited from earlier work

Molecule: 3-[4-(5-iodopyridin-2-yl)-piperazin-1-yl]methyl-1H-pyrrolo[2,3-b]pyridine [Example 2]
Ki [1]: 0.91 nM
Ki [2]: 621 nM

Molecule: 3-[4-(pyridin-2-yl)-piperazin-1-yl]methyl-1H-pyrrolo[2,3-b]pyridine [Example 1]
Ki [1]: 1 nM
Ki [2]: 3660 nM

inhibition at 0.001 µM ([1]; 1 nM, ^3 H-spiperone): 26%
inhibition at 0.01 µM ([1]; 10 nM, ^3 H-spiperone): 78%
inhibition at 0.1 µM ([1]; 100 nM, ^3 H-spiperone): 98%
inhibition at 0.001 µM ([2]; 1 nM, ^3 H-spiperone): < 10%
inhibition at 0.01 µM ([2]; 10 nM, ^3 H-spiperone): < 10%
inhibition at 0.1 µM ([2]; 100 nM, ^3 H-spiperone): < 10%
Molecule: Brc1ccc(N2CCN(Cc3c[nH]c4ncccc34)CC2)nc1 [Example 3, 3-[4-(5-bromopyridin-2-yl)-piperazin-1-yl]methyl-1H-pyrrolo[2,3-b]pyridine]

Molecule: CN1CCN(C2=Nc3cc(Cl)ccc3Oc3ccccc32)CC1 [isoloxapine]
Ki [3]: ~20 nM
preference for binding to the D4 receptor relative to the D2 receptor [4]: about 10 fold
